# Experimental data published in patent publication US8008077B2, “Photochemical internalization for delivery of molecules into the cytosol” (priority 2000, dated 2011).
# Test system: V-79 cells
# Assay: PCI cell killing by bleomycin, cell survival by MTT assay
# Assay type: cell-based, Chinese hamster
# Conditions: light before
# Procedure: The Chinese hamster lung fibroblast cell line V-79 was used in this study.
# The cells (75 000 cells/well, 1 ml/well) were seeded into 12-well plates (Costar Corning, N.Y., USA) and allowed to attach for 6 h. To some of the wells 1 ml medium with 0.7 μg/ml TPPS2a was added (see Table 1), and the cells were incubated for 18 h (5% v/v CO2, 37° C.) The cells were washed three times with medium. The cells were then incubated in serum-containing medium for 4 h. The medium was removed, new medium was added and the cells were illuminated by exposure to light from a box containing a bank of four fluorescent tubes (Osram 18W/67) with the highest fluence around 420 nm.
# Different doses of bleomycin were immediately added. After 1 or 4 h incubation with bleomycin the cells were washed once with RPMI-medium, 1 ml of medium was added and after 3 days of incubation cell survival was measured by the MTT assay. This method is based on reduction of a water-soluble tetrazolium salt (MTT) to a purple, insoluble formazan product by mitochondrial dehydrogenases present in living, metabolically active cells. […] The solution is transferred to a 96 wells plate which is read by a Multiskan EX microplate reader (Labsystems, Finland) with a 570 nm bandpass filter. Cell survival is calculated as percent of control cells not receiving light treatment.
substance,measurement,setting,value
bleomycin,"light-induced effect on cytotoxicity (cell survival, MTT)","100 μM bleomycin, 1 or 4 h, with 0.7 μg/ml TPPS2a",substantial light-induced increase in the cytotoxicity
same,light-induced effect on cell survival (MTT),"lowest dose of bleomycin (5 μM, 1 h), with TPPS2a",lack of effect
